PMC7992105 (Medicinal chemistry research : an international journal for …, 2020)

Molecular target: CB2 (cannabinoid receptor subtype 2) (Homo sapiens, UniProt P34972)
Format: binding

Sequence of CB2 (cannabinoid receptor subtype 2) (P34972 whole entry): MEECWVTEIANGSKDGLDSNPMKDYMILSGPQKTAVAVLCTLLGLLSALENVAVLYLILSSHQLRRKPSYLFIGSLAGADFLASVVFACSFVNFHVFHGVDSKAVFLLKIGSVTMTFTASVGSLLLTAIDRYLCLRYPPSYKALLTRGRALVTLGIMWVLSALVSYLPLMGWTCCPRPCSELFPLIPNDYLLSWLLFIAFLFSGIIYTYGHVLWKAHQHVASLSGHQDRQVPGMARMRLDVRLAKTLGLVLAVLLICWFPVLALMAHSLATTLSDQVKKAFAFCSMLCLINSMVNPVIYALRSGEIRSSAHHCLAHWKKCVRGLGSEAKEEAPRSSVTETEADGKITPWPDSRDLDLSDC

Compound	Ki
O=C1c2ccccc2NC(=N/N=C/c2cccs2)[C@@H]2CCCN12 [4g, (S,E)-11-[2-(2-thiophenylmethylene)hydrazono]-pyrrolo[2,1-c][1,4]benzodiazepine]	0.49 µM
O=C1c2ccccc2NC(=N/N=C/c2c[nH]c3ccccc23)[C@@H]2CCCN12 [4h, (S,E)-11-[2-(3-indolylmethylene)hydrazono]-pyrrolo[2,1-c][1,4]benzodiazepine]	4.7 µM
